Results from patent publication US9675699B2, “Cooling enhancing compositions” (International Flavors & Fragrances Inc., priority 2011, dated 2017).

Assays:
[1] = system: cooling profile of menthol; experiment: Example II: cooling profile versus 5 ppm menthol control, group of five trained panelists; type: in vivo, human; settings: for Average Increase: versus 5 ppm menthol control
Method: Responsible actives were determined by comparing the cooling profile of menthol alone (the control) against the solutions with either menthol or cooling enhancing compositions or menthol with the active(s). The profile attributes consist of onset, location, intensity and duration of cooling. Control: 5mg menthol/1 Liter of water (=5 ppm) The use level of 5 ppm is a standard use level within our research facility when looking for cooling enhancement. The levels of the actives were determined after tasting them at varying concentrations within the range of 1 ppm to 200 ppm. The levels presented were deemed to be optimal by offering the greatest functionality. The cooling enhancing compositions listed below were dosed on top of the menthol control. The results below were obtained by a group of five trained panelists.)

cooling strength = settings: with respect to WS-3 = 10.0; cited from earlier work
cooling = experiment: Inherent cooling of materials tasted alone in water; type: in vivo, human
[2] = 5 ppm Menthol + 50 ppm test substance in water
[3] = 5 ppm Menthol + 50 ppm test substance

For CC1CCC(C(C)C)C(O)C1 (stereo not drawn) [Menthol], the “Taste Descriptors” value ([1]; 5 ppm Menthol alone in water (control)) was “thin and moderate cooling, slight burn, some bitterness, cooling on front, tip of tongue and gums, mild cooling on breath-in, slightly harsh and sharp”.
For CCNC(=O)C1CC(C)CCC1C(C)C (stereo not drawn) [WS-3], the relative cooling strength (cooling strength) is listed as 10.0.
In the case of CC(C)[C@@H]1CC[C@@H](C)C[C@H]1C(=O)NC(C)(C)C [WS-14], the relative cooling strength (cooling strength) is given as “about 5.0”.
In the case of CC1CCC(C(C)C)C(C(=O)OCC(O)CO)C1 (stereo not drawn) [WS-30], the relative cooling strength (cooling strength) is listed as “about 1.5”.
With O=c1cc(-c2ccc(O)c(O)c2)oc2cc(O)cc(O)c12 [Luteolin] the “inherent cooling (taste observation)” value (cooling; 50 ppm in water) was “slightly stale flavor, no cooling”, the “Taste Descriptors” value [1, 2] was “Equivalent cooling as compared to control, localized on front tip of tongue, gums and roof of mouth, did not expedite onset but smoothed upfront mouthfeel, slight irritation to tongue and back of mouth/ throat cavity” and the “Average Increase” value [1, 3] was 32%.
For CC(C)[C@@H]1CC[C@@H](C)C[C@H]1OC(=O)CCCC(=O)O [monomenthyl glutarate], the relative cooling strength (cooling strength) is listed as “about 3.5”.
In the case of CNC(=O)C(C)(C(C)C)C(C)C [WS-23], the relative cooling strength (cooling strength) is given as “about 5.0”.
In the case of CCOC(=O)CNC(=O)[C@@H]1C[C@H](C)CC[C@H]1C(C)C [WS-5], the relative cooling strength (cooling strength) is listed as “about 16.7”.
For CNC(=O)C1C(C)CCCC1(C)C (stereo not drawn) [N,2,2,6-Tetramethylcyclohexane-l-carboxamide], the relative cooling strength (cooling strength) is given as “about 1.0”.
With COc1cc([C@@H]2CC(=O)c3c(O)cc(O)cc3O2)ccc1O [Homoeriodictyol] the “inherent cooling (taste observation)” value (cooling; 5 ppm in water) was “taste neutral, slightly drying, no cooling”, the “inherent cooling (taste observation)” value (cooling; 25 ppm in water) was “drying, not cooling” and the “Taste Descriptors” value ([1]; 5 ppm Menthol + 5 ppm test substance in water) was “faster onset of cooling than menthol alone, cooling localized on front of tongue, cold as in temperature, slight teeth cooling, fully delocalized cooling after 10 seconds reaching back of throat and roof of mouth, mild cooling on breath-in, diminished menthol burn”. The “Average Increase” value ([1]; 5 ppm Menthol + 5 ppm test substance) was 66%.
With O=C1C[C@@H](c2ccc(O)c(O)c2)Oc2cc(O)cc(O)c21 [Eriodictyol] the “inherent cooling (taste observation)” value (cooling; 35 ppm in water) was “slight irritation (piperin-like burn) without cooling”, the “Taste Descriptors” value [1, 2] was “Cooling localized on middle of tongue stronger than control, more intense in back of throat on breath-in, does not trigger a faster onset, cooling builds more after expectorating and on breath-in, sharpened the intensity of cooling in the center and sides of tongue and roof of mouth” and the “Average Increase” value [1, 3] was 56%.
In the case of CC1CCC(C(C)C)C(OC(=O)C(C)O)C1 (stereo not drawn) [Menthyl Lactate], the relative cooling strength (cooling strength) is given as “about 2.9”.
For COc1ccc([C@@H]2CC(=O)c3c(O)cc(O)cc3O2)cc1O [Hesperetin], the “Taste Descriptors” value [1, 2] was “Sweet, no impact on cooling, slightly bitter, drying, cooling is delocalized and about the same strength as control” and the “Average Increase” value [1, 3] was 0%.
